Each block holds one molecule with its values, some of them ahead of it.
Assays:
[1] = target: T1, tyrosinase (Mus musculus, UniProt P11344); assay: Tyrosinase assay on pre-lysed cells; format: biochemical; conditions: pre-lysed cells treated with compound
T1 construct: tyrosinase assay on cell lysates derived from whole cells; endogenous in cells; host or cells: melanocytes
T1 sequence (P11344 19-533): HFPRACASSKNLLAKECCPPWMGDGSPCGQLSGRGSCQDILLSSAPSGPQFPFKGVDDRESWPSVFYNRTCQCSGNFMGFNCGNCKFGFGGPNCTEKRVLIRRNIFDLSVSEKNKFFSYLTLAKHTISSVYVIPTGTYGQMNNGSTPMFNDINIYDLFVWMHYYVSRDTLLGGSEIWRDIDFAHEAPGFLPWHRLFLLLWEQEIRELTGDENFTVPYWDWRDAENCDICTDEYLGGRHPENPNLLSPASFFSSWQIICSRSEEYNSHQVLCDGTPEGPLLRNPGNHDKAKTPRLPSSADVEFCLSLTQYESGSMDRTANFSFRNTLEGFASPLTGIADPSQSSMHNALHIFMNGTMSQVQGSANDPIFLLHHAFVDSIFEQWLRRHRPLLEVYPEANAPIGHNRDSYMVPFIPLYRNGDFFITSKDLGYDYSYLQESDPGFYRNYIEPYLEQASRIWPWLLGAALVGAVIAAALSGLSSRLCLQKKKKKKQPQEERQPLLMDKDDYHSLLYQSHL

[2] = tested on: tyrosinase; assay: Tyrosinase assay on conditioned media; format: cell-based; conditions: conditioned media of treated cells
[3] = target: T2, mitochondrial F1F0 ATPase (Mus musculus, UniProt P56480+Q03265+Q9CR84); assay: Affinity chromatography on immobilized PPA (PPA-Affi) with competition, melanocyte extracts; format: binding; conditions: for competition with ATPase binding to PPA affinity matrix: melan-a extracts, competitor 30 minutes at 4° C., antibodies to beta and alpha subunits
T2 construct: endogenous in cells; host or cells: Melan-a murine melanocytes
Protocol: Melanocyte extracts were incubated with PPA-Affi in the presence of the compounds shown. After extensive washing, bound proteins were then eluted with SDS-containing buffer and subjected to SDS-PAGE and silver staining. […] The binding of mitochondrial ATPase was inhibited not only by PPA itself but also by oligomycin, a known mitochondrial ATPase inhibitor.
FIG. 5 is another illustration that mitochondrial ATPase is the target of PPA. The experimental protocol were similar to those described above, but rather than silver stain, immunoblotting was conducted with antibodies to the beta and alpha subunits of the mitochondrial ATPase. The primary antibody in A was anti-F1-ATPase beta subunit antibody (1:2500, 1 hour), and the primary antibody in B was anti-ATPase alpha subunit antibody (1:2500, 1 hour). The secondary antibody was anti-mouse Goat IgG (1:2500, 1 hour).
For this experiment, the cell source was Melan-a (murine melanocyte). The reaction volume was 147 microL of protein extract (0.3 mg/mL)+147 microL bead buffer+6 microL competitor (aurovertin or PPA6 or DMSO). The competition took place for 30 minutes at 4° C. with rocking. The bead volume was 40 microL of 50% slurry. The beads were washed with 1 mL bead buffer seven times. Elution was with 40 microL+30 microL Laemmli buffer, heating for 4 minutes at 90° C.
For the gel electrophoresis, the gel was 10% SDS-PAGE gel, 20-well combination. The loading volume was 25 microL (2nd elution). Running was 30V, overnight.
Protein was extracted from cells by incubation with extraction buffer (1 mM CaCl2, 150 mM NaCL; 10 mM Tris, pH 7.4; 1% Triton X-100, 1 mM PMSF plus protease inhibitor cocktail (Roche, NJ, USA) for five minutes on ice. Crude lysate was centrifuged at 13,000 rpm for ten minutes. The protein concentration of the supernatant was measured by the Bradford assay (Bio-Rad, CA) and adjusted to a final concentration of 1 microg/microL prior to affinity chromatography. […]

[4] = tested on: melan-a melanocytes; assay: Melanin assay / pigmentation of cultured melanocytes; format: cell-based, mouse
Protocol: The numbers above the bars indicate the percent increase in melanin production relative to the untreated control. For this assay, melan-a melanocytes were cultured in DMEM supplements with 10% FCS, 1% L-glutamine, 1% penicillin/streptomycin, and 40 nM TPA. The cultures were maintained at 37° C., 5% CO2. The cells were seeded at 5×10^4 cells per well in 24 well plates and treated for 72 hours. Photographs were taken after 72 hours at 40× magnification. The cells were harvested, centrifuged, and the protein was extracted from the pellet with 1:1 ethanol:ether. The melanin pellets were solubilized in 20% DMSO/2N NaOH. Samples were transferred to a 96-well plate and the optical density was read at 490 nm using a Biorad 550 spectrophotometer.
The cells were rinsed with phosphate buffered saline (PBS) and lysed with an extraction buffer of […] Tris, pH 7.5; 2 mM ethylenediamine tetraacetic acid (EDTA), pH 7.8; 150 mM NaCl; 1% Titron X-100, with protease inhibitor cocktail at 4° C. The cell extracts were then spun at 12,000 rpm for 10 minutes at 4° C. The remaining pellet was assayed for melanin by rinsing twice with ethanol-ether (1:1) and dissolving in 200 microL of 2N NaOH in 20% DMSO at 60° C. A 100 microL aliquot of the resulting solution was then measured for absorbance at […].

[5] = target: T3, mitochondrial ATPase (beta subunit, OSCP) (Homo sapiens, UniProt P05496+P06576+P48047); assay: PPA-Affi affinity binding and competition, SK Mel19 extracts; conditions: SK Mel19 protein extract
T3 construct: Using human melanoma cell source SK Mel 19, the reaction volume was 147 microL of protein extract; endogenous in cells; host or cells: SK Mel19 human melanoma cells
Protocol: (§1) Using human melanoma cell source SK Mel 19, the reaction volume was 147 microL of protein extract (1.0 mg/mL)+147 microL bead buffer+6 microL competitor (oligomycin) or S+DMSO. Competition was effected for 30 minutes at 4° C. with rocking. The bead volume was 40 microL of 50% slurry. Washing was five times with 1 mL bead buffer, and elution was with 40 microL Laemmli buffer, with heating for 4 minutes at 90° C. Gel electrophoresis was with 10% SDS-PAGE gel, 20 well combination. Loading volume was 35 microL, and running was 30V, overnight.
as §1, with “99” for “147”, “mg/mL)+99” for “mg/mL)+147”, “buffer+2” for “buffer+6”, “DMSO. Incubation” for “S+DMSO. Competition”, “100V for one hour.” for “30V, overnight.”

tyrosinase activity [1]: only a marginal change
Structure (SMILES): CC(C)Cn1c(=O)n(C)c(=O)c2[nH]cnc21 [IBMX, 3-Isobutyl-1-methylxanthine]
secreted tyrosinase activity [2]: large increase in secreted enzyme activity

Structure (SMILES): NC(=S)Nc1ccccc1 [PTU, phenylthiourea]
tyrosinase activity [1]: significant decrease in tyrosinase activity

Structure (SMILES): CC[C@H]1O[C@]2(C)[C@H](OC(C)=O)[C@@]1(C)O[C@@H](/C=C/C=C/C=C/c1oc(=O)cc(OC)c1C)[C@@H]2O [aurovertin, aurovertin B]
competition with ATPase binding to PPA affinity matrix [3]: do not compete | pigmentation (melanin production) [4]: promote pigmentation

Structure (SMILES): CC[C@H]1/C=C/C=C/C[C@@H](C)[C@H](O)[C@@](C)(O)C(=O)[C@@H](C)[C@H](O)[C@@H](C)C(=O)[C@@H](C)[C@H](O)[C@@H](C)/C=C/C(=O)O[C@@H]2[C@H](C)[C@H](CC1)O[C@]1(CC[C@H](C)[C@H](C[C@@H](C)O)O1)[C@H]2C [oligomycin, Oligomycin]
elution of beta subunit and OSCP bound to PPA-Affi [5]: eluted by oligomycin | competition with ATPase binding to PPA affinity matrix [3]: competed with ATPase binding | inhibition of binding of mitochondrial ATPase to PPA-Affi ([3]; melanocyte extracts, SDS-PAGE and silver staining): inhibited | pigmentation (melanin production) [4]: promote pigmentation

From US20040265252A1, “Compounds stimulating and inhibiting melanin formation, and methods for screening these compounds” (New York University, priority 2003, published 2004)
